Patent publication US20140051918A1, “LAPAROSCOPIC GASTRIC BAND WITH ACTIVE AGENTS” (Allergan, Inc., priority 2009, published 2014)
Ends that are not written are not given here.

B1: Cholecystokinin (peptide, UniProt P06307 21-115, looked up)
Cholecystokinin: QPVPPADPAGSGLQRAEEAPRRQLRVSQRTDGESRAHLGALLARYIQQARKAPSGRMSIVKNLQNLDPSHRISDRDYMGWMDFGRRSAEEYEYPS
modifications: Cholecystokinin
notes: hormone that suppresses appetite when administered with or without gastric distension
B2: Ciliary neuro-trophic factor (protein, UniProt P26441 1-200, looked up)
Ciliary neurotrophic factor: MAFTEHSPLTPHRRDLCSRSIWLARKIRSDLTALTESYVKHQGLNKNINLDSADGMPVASTDQWSELTEAERLQENLQAYRTFHVLLARLLEDQQVHFTPTEGDFHQAIHTLLLQVAAFAYQIEELMILLEYKIPRNEADGMPINVGDGGLFEKKLWGLKVLQELSQWTVRSIHDLRFISSHQTGIPARGSHYIANNKKM

Assay: Patient examples: laparoscopic gastric band releasing an active agent, with weight loss, appetite and blood sugar control reported
Format: in vivo, human
Settings: 322 pounds; for weight lost by the patient: 5'11", within 12 months; for weight lost by the patient / appetite as reported by the patient: gastric band containing the agent, released to a goal plasma concentration over 3-24 months
Text: A patient, having a body weight of 322 pounds and a height of 5′11″, complains to their physician that they have tried unsuccessfully to lose weight over the past 15 years and is concerned about the effect their excess weight may have on their health. […] A reservoir containing glucagon like peptide 1 (GLP-1), according to any of the embodiments of this application may also be utilized.
A patient, having a body weight of 322 pounds and a height of 5′11″, complains to their physician that they have tried unsuccessfully to lose weight over the past 15 years and is concerned about the effect their excess weight may have on their health. […] A reservoir containing oxyntomodulin (OXM), according to any of the embodiments of this application may also be utilized. An injection, liquid, pill, spray, inhalant, patch, or oral substance such as a gum containing oxyntomodulin (OXM) may also be used.
A patient, having a body weight of 322 pounds and a height of 5′11″, complains to their physician that they have tried unsuccessfully to lose weight over the past 15 years and is concerned about the effect their excess weight may have on their health.
A patient, having a body weight of 322 pounds and a height of 5′11″, complains to their physician that they have tried unsuccessfully to lose weight over the past 15 years and is concerned about the effect their excess weight may have on their health. […] A reservoir containing Pancreatic Peptide (PP), according to any of the embodiments of this application may also be utilized. An injection, liquid, pill, spray, inhalant, patch, or oral substance such as a gum containing Pancreatic Peptide (PP) may also be used.
A patient, having a body weight of 322 pounds and a height of 5′11″, complains to their physician that they have tried unsuccessfully to lose weight over the past 15 years and is concerned about the effect their excess weight may have on their health. […] A reservoir containing Insulin, according to any of the embodiments of this application may also be utilized. An injection, liquid, pill, spray, inhalant, patch, or oral substance such as a gum containing Insulin may also be used.
A patient, having a body weight of 322 pounds and a height of 5′11″, complains to their physician that they have tried unsuccessfully to lose weight over the past 15 years and is concerned about the effect their excess weight may have on their health. […] A reservoir containing Leptin, according to any of the embodiments of this application may also be utilized. An injection, liquid, pill, spray, inhalant, patch, or oral substance such as a gum containing Leptin may also be used. […] In the case of a female patient the goal plasma concentrations would be [10-20 ng/mL]p.
A patient, having a body weight of 322 pounds and a height of 5′11″, complains to their physician that they have tried unsuccessfully to lose weight over the past 15 years and is concerned about the effect their excess weight may have on their health. […] A reservoir containing Amylin, according to any of the embodiments of this application may also be utilized. An injection, liquid, pill, spray, inhalant, patch, or oral substance such as a gum containing Amylin may also be used.
A patient, having a body weight of 322 pounds and a height of 5′11″, complains to their physician that they have tried unsuccessfully to lose weight over the past 15 years and is concerned about the effect their excess weight may have on their health. […] A reservoir containing Cholecystokinin (CCK), according to any of the embodiments of this application may also be utilized. An injection, liquid, pill, spray, inhalant, patch, or oral substance such as a gum containing Cholecystokinin (CCK) may also be used.

Molecule	weight lost by the patient [pounds]	appetite as reported by the patient	blood sugar control as reported by the patient (gastric band containing Insulin, released to plasma concentrations of 5-30 μU/mL over 3-24 months)
Cocaine-Amphetamine Regulated Transcript [CART]	58	marked suppression of appetite	–
oxyntomodulin [OXM]	58	marked suppression of appetite	–
Leptin	58	marked suppression of appetite	–
Amylin (KCNTATCATQRLANFLVHSSNNFGAILSSTNVGSNTY; not fully specified (C-terminus, bridges); cysteine pairing not given here; UniProt P10997 34-70, looked up) [satiety inducing peptide hormone]	58	marked suppression of appetite	–
Pancreatic Peptide (APLEPVYPGDNATPEQMAQYAADLRRYINMLTRPRY; ends and bridges not checked; UniProt P01298 30-65, looked up) [PP, satiety inducing peptide hormone]	58	marked suppression of appetite	–
Insulin	–	–	euglycemic effects, or better control by their body of blood sugars
glucagon like peptide 1 (HAEGTFTSDVSSYLEGQAAKEFIAWLVKGR; ends and bridges not checked; UniProt P01275 98-127, looked up) [GLP-1, satiety inducing peptide hormone]	58	marked suppression of appetite	–
PYY: satiety inducing peptide hormone [Peptide Y-Y]	58	marked suppression of appetite	–
B1	58	marked suppression of appetite	–
B2	58	marked suppression of appetite	–
